We go through two compounds from US5013841A, “Oxo quinoline derivatives” (Dainippon Pharmaceutical Co., Ltd., priority 1987, dated 1991).

The test system of data set [1] is M. pneumoniae Mac. Kind of data set: Antimycoplasma activity (twofold agar dilution method). It counts as cell-based, Mycoplasma pneumoniae. As to conditions: Mycoplasmoides pneumoniae, 168 h; M. pneumoniae Mac; Chanock agar, 37° C., 7 days, aerobic, calculated for free base; read-out: minimum inhibitory concentration (MIC). As for the experimental part: The figures in the table show minimum inhibitory concentrations (MIC), (μg/ml), calculated for free base.
Minimum inhibitory concentrations (MIC) were determined by the twofold agar dilution method. The media used were Chanock broth and agar PPLD broth and agar (Difco) supplemented with 20% horse serum and 10% fresh yeast extract). A 2-3 day broth culture of organisms was diluted with Chanock broth to a cell density of about 10^6 cells/ml. One loopful (about […]) of the organism dilution was spotted onto 10-ml drug containing Chanock agar in petri dishes using a multiple inoculator (Cathra International). The petri dishes were incubated at 37° C. for 7 and 2 days for Mycoplasma pneumoniae and other Mycoplasma spp. respectively. Incubation was performed anaerobically using the Gaspak anaerobic system (BBL) for M. buccale, M. fermentans, M. hominis, M. orale and M. salivarium, and aerobically for other Mycoplasma spp. The MIC was defined as the lowest compound concentration at which no growth of organism was detected.

The subject of data set [2] is P. Aeruginosa 12. Put plainly: In vitro antibacterial activity (twofold agar-dilution method). It counts as cell-based. As to conditions: Pseudomonas aeruginosa, 20 h, read-out: minimum inhibitory concentration (MIC). The procedure: (§1) The figures in the table show minimum inhibitory concentrations (MIC) (μg/ml), calculated for free base. The minimum inhibitory concentration was determined by the twofold agar-dilution method, which was recommended by Japan Society of Chemotherapy (Chemotherapy, 29(1), 76(1981)), using Muller-Hinton agar. One loopful of an overnight culture of test organisms in Mueller-Hinton broth was inoculated onto 10-ml drug-containing agar layers in petri dishes. Bacterial inocula contained approximately 10^6 colonyl-formingunits. Bacterial growth was observed after 20-hour incubation at 37° C. The MIC was defined as the lowest drug concentration which prevented visible bacterial growth.

In data set [3] the test system is E. coli NIHJ JC-2. Described as above. It counts as cell-based. The note with it: Escherichia coli, NIHJJC2; E. coli NIHJ JC-2; agar dilution, 20 h, 37° C., calculated for free base; read-out: minimum inhibitory concentration (MIC). The procedure:
as §1

Data set [4] has as its system S. aureus 209 JC-1. The description is as above. It counts as cell-based. The note with it: Staphylococcus aureus, read-out: minimum inhibitory concentration (MIC). The procedure: as §1
The subject of data set [5] is S. pyogenes Cook. The data set is described as above. It counts as cell-based. As to conditions: Streptococcus pyogenes, 20 h, 37° C., calculated for free base, read-out: minimum inhibitory concentration (MIC). As for the experimental part:
as §1

For data set [6], the system named is S. aureus No. 80. Described as above. It counts as cell-based. As to conditions: Staphylococcus aureus; S. aureus No. 80; agar dilution, 20 h, 37° C., calculated for free base; read-out: minimum inhibitory concentration (MIC). As for the experimental part:
as §1

The test system of data set [7] is S. epidermidis No. 8. Described as above. It counts as cell-based. The note with it: Staphylococcus epidermidis, read-out: minimum inhibitory concentration (MIC). As for the experimental part:
as §1

A short description of data set [8]: Urinary excretion in mice (thin-layer cup-plated method, Escherichia coli Kp indicator). It counts as in vivo. As to conditions: mouse, urine, oral, 5 mg/kg, read-out: Urinary recovery for 24 hours. The procedure:
A suspension containing each of compounds was orally administered to mice at a dose of 5 mg/kg. Urine was collected over a period of 24 hours after adminstration. The levels of the compounds in urine were determined by the thin-layer cup-plated method using Escherichia coli Kp as an indicator organism.

Data set [9] has as its system Streptococcus pyogenes A65. The note with it: A65, in Mus musculus, po, 168 h, read-out: median effective dose (ED50).
Data set [10] relates to Pseudomonas aeruginosa 12. The note with it: Pseudomonas aeruginosa, 12, in Mus musculus, po, 168 h, read-out: median effective dose (ED50).
Data set [11] has as its system Streptococcus pneumoniae 1 Neufeld. It counts as in vivo, Streptococcus pneumoniae (male mice, Std-ddY). The note with it: 336 h, mice, oral, four times (immediately, 6, 24 and 30 h after intraperitoneal infection), 14 days, calculated for free base, read-out: median effective dose (ED50).
For data set [12], the system named is Staphylococcus aureus 50774. It counts as in vivo, Staphylococcus aureus (male mice, Std-ddY). The note with it: Staphylococcus aureus, 50774, 336 h; mice, oral, twice (immediately and 6 h after intravenous infection), 14 days, calculated for free base; read-out: median effective dose (ED50). The text has this: Staphylococcus aureus 50774
Intravenous infection with 5×10^8 cells per mouse suspended in saline.
For 7 days for other organisms.

In brackets after ≈: the same amount, converted by molar mass. Like-named read-outs stand apart in the source and are kept apart here.

As to `Nc1c(F)c(N2CCNCC2)cc2c1c(=O)c(C(=O)O)cn2C1CC1` [Compound 1], the MIC was 0.1 µg/mL (≈ 0.289 µM) in data set [1]; 0.05 µg/mL (≈ 0.144 µM) in data set [2] (P. Aeruginosa 12, agar dilution, 37° C., calculated for free base); 0.0063 µg/mL (≈ 0.0182 µM) in data set [3]; 0.025 µg/mL (≈ 0.0722 µM) in data set [4] (209JC1, S. aureus 209 JC-1, agar dilution, 20 h, 37° C., calculated for free base); 0.2 µg/mL (≈ 0.577 µM) in data set [5]; 0.05 µg/mL (≈ 0.144 µM) in data set [6]. Further, the MIC in data set [7] (S. epidermidis No. 8, agar dilution, 20 h, 37° C., calculated for free base) was 0.025 µg/mL (≈ 0.0722 µM).
Broadly, the ED50 is the dose that gives a 50% effect, or the effect in half of the subjects. As for `C[C@@H]1CN(c2cc3c(c(N)c2F)c(=O)c(C(=O)O)cn3C2CC2)C[C@H](C)N1` [Compound 2, 5-amino-1-cyclopropyl-6-fluoro-7-(cis-3,5-dimethyl-1-piperazinyl)-1,4-dihydro-4-oxoquinoline-3-carboxylic acid], the dose excreted at 24 h in data set [8] came to 8.33%. The median effective dose (ED50) in data set [9] is 11.6 mg/kg; in data set [10], 1.98 mg/kg; in [11] it was 10.2 mg/kg; in [12], 1.41 mg/kg. The MIC in data set [1] was 0.1 µg/mL (≈ 0.267 µM); in data set [2], 0.39 µg/mL (≈ 1.04 µM); in data set [3], 0.025 µg/mL (≈ 0.0668 µM); in data set [4] (209JC1, 20 h) it was 0.1 µg/mL (≈ 0.267 µM); in [5] it was 0.39 µg/mL (≈ 1.04 µM); in [6], 0.025 µg/mL (≈ 0.0668 µM). Also, the MIC in [7] (NO.8, 20 h) was determined as 0.1 µg/mL (≈ 0.267 µM).
